Legend:
Format in all cases: cell-based
[1] = tested on: HeLa cells; assay: LCDA quantification of Ebastine-induced cell death in HeLa cells (FIG. 7); settings: 50 uM Ebastin, treated right before acquisition; versus control well; 5 h post treatment
From the text: FIG. 7: Application of LCDA to quantify Ebastine-induced cell death—HeLa cells grown in two wells were used as (A) control and (B) treatment experiment.

[2] = tested on: 3T3-L1-derived preadipocyte cells; assay: LCDA quantification of Ebastin-induced cell death in 3T3-L1-derived preadipocytes; settings: 20 μM Ebastin added 1 hour before acquisition; versus untreated cells
Description: It was finally concluded by quantifying the capacity of another drug to kill cells, Ebastin, to validate the simplest of the uses of the LCDA. 3T3-L1-derived preadipocyte cells were seeded in 35 mm dish at ˜30,000 cells/ml and let to grow for 48 h in DMEM supplemented with 10% FBS.

[3] = tested on: 3T3-L1-derived preadipocyte cells; assay: Live cell death assay (LCDA) benchmarked with live fluorescent cell death kit, camptothecin treatment; settings: 2.5 μM camptothecin added 4 hours before acquisition; imaged for 17.5 hours; versus without camptothecin
From the text: To validate the performance of the LCDA, the invention method was benchmarked with a state-of-the-art live fluorescent kit (FIG. 6). 3t3-derived preadipocytes were imaged on an optical diffraction tomography system combining RI recording and epifluorescence, with and without addition of camptothecin, a proapoptotic drug (FIG. 6). Annexin V-Cy5 and Nuclear Green DCS1 were used as fluorescent markers to detect apoptosis and necrosis, respectively. The RI images of the kit-stained cells were also analyzed with the LCDA. The cell death information provided by the fluorescent signals contained within the RI segmentation masks was then compared, with the LCDA results (FIG. 6, E and F).
3T3-L1-derived preadipocyte cells were seeded in a 35 mm dish at ˜30,000 cells/ml and let to grow for 48 h in DMEM supplemented with 10% FBS. 4 hours before starting the acquisition, the cells were treated with 2.5 μM camptothecin (abcam—ab120115) to induce apoptosis. 10 minutes before starting the acquisition, Annexin V-Cy5 and Nuclear Green DCS1 (abcam—ab14147, ab138905) were added to the medium, following the supplier's protocol. […]
RI images were then analyzed and plotted with the LCDA module's features. Fluorescence was quantified by measuring the mean intensity in each cell using RI segmentations using an independent image analysis tool. […]

SMILES | number of dead cells predicted over time (cell death rate) [1] | induced cell death over time (LCDA) [2] | death of cells (LCDA and Annexin V-Cy5 / Nuclear Green DCS1 fluorescence) [3]
CC(C)(C)c1ccc(C(=O)CCCN2CCC(OC(c3ccccc3)c3ccccc3)CC2)cc1 [Ebastin] | higher cell death rate in the treated condition already at 5 h post treatment | treated cells show a very clear curve of induced cell death | 
CC[C@@]1(O)C(=O)OCc2c1cc1n(c2=O)Cc2cc3ccccc3nc2-1 [camptothecin] |  |  | accelerates greatly the death of cells and results in the whole cell population dying by the end of the experiment
